Legend:
[1] = system: Rattus norvegicus; assay: Antiinflammatory activity by carrageenan-induced rat paw edema assay after 3 hr at 100 mg/kg concentration administered perorally.; assay type: functional; conditions: route oral
[2] = system: Rattus norvegicus; assay: Antiinflammatory activity was evaluated by carrageenan-induced rat paw edema assay after 3 hr at 100 mg/kg concentration administered perorally; assay type: functional; conditions: route oral
[3] = system: Rattus norvegicus; assay: Antiinflammatory activity was evaluated by contund edema after 3 hr at 200 mg/kg concentration administered perorally; assay type: functional; conditions: route oral
[4] = system: Mus musculus; assay: Compound was evaluated for analgesia at 100 mg/kg when administered perorally (- = positive mice</=1); assay type: functional; conditions: route oral
[5] = Compound was evaluated for lethal dose in mice when administarted intraperitoneally; assay type: toxicity, organism-based; conditions: mouse, in vivo, ip
[6] = system: Mus musculus; assay: Compound was evaluated for analgesia at 100 mg/kg when administered perorally (+ = positive mice >/=2); assay type: functional; conditions: route oral
[7] = system: Rattus norvegicus; assay: Compound was tested for anti-pyrexia (Yeast-induced pyrexia) when administered perorally; assay type: functional; conditions: po
[8] = system: Rattus norvegicus; assay: Compound was tested for inhibition of contund edema when administered perorally; assay type: functional; conditions: po
[9] = system: Rattus norvegicus; assay: Compound was tested for ulcerogenicity when administered perorally; assay type: functional
[10] = system: Rattus norvegicus; assay: Compound was tested for inhibition of carrageenan induced edema when administered perorally; assay type: functional; conditions: po
[11] = Compound was tested for acute toxicity when administered intraperitoneally in mice; assay type: organism-based; conditions: mouse, in vivo, ip
[12] = system: Rattus norvegicus; assay: Compound was tested for inhibition of scald edema when administered perorally; assay type: functional; conditions: po
[13] = system: Rattus norvegicus; assay: Compound was tested for analgesia by Acetic acid writhing method when administered perorally; assay type: functional; conditions: po
[14] = target: T1, Cyclooxygenase (Rattus norvegicus, UniProt P35355+Q63921); assay: Compound was tested for inhibition of prostaglandin synthetase […]; assay type: protein assay
T1 sequence (P35355 whole entry): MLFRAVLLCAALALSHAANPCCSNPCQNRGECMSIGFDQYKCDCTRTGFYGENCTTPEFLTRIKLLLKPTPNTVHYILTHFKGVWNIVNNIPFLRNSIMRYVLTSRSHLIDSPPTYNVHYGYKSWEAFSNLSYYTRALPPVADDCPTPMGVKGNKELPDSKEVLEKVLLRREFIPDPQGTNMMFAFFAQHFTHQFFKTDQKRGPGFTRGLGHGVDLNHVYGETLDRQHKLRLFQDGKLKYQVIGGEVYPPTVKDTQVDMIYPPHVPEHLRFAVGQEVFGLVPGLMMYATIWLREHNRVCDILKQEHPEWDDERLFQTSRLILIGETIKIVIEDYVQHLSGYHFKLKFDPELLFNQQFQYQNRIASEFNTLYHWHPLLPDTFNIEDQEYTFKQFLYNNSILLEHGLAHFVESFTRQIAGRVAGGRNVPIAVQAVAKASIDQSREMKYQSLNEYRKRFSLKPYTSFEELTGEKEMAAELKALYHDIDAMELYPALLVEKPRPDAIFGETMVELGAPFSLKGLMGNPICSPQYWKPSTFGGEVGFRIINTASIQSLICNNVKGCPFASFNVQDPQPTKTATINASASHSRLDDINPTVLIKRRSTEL
T1 sequence (Q63921 whole entry): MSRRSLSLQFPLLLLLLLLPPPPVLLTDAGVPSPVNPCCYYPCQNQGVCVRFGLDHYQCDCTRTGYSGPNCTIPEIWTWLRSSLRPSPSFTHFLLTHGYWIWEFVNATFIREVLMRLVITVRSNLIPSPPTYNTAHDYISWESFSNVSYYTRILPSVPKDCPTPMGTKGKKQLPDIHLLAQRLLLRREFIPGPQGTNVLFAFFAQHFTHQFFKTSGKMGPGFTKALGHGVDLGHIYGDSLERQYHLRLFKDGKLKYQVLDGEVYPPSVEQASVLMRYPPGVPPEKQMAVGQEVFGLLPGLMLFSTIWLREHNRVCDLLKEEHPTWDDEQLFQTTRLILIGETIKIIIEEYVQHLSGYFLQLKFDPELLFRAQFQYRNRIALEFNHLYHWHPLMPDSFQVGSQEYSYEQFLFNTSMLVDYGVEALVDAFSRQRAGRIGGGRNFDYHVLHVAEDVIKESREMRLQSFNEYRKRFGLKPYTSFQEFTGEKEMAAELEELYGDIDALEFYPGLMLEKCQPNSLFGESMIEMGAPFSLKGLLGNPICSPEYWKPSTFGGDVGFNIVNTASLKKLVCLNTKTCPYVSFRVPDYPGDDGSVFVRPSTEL

[15] = system: Mus musculus; assay: Compound was evaluated for analgesia at 100 mg/kg when administered perorally (+ = positive mice >/= 2); assay type: functional; conditions: route oral
[16] = system: Rattus norvegicus; assay: Antiinflammatory activity was evaluated by contund edema assay after 3 hr at 200 mg/kg concentration administered perorally; assay type: functional; conditions: route oral
[17] = system: Mus musculus; assay: Compound was evaluated for analgesic activity at 100 mg/kg when administered perorally (- = positive mice</= 1); assay type: functional; conditions: route oral
[18] = system: Rattus norvegicus; assay: Antiinflammatory activity was evaluated by carrageenan-induced rat paw edema assay after 3 hr at 100 mg/kg concentration administered perorally (=p</=0.01); assay type: functional; conditions: route oral
[19] = system: Rattus norvegicus; assay: Antiinflammatory activity was evaluated by carrageenan-induced rat paw edema assay after 3 hr at 100 mg/kg concentration administered perorally (=p< 0.05); assay type: functional; conditions: route oral
[20] = system: Rattus norvegicus; assay: Compound was tested for analgesia when administered perorally; assay type: functional; conditions: po
[21] = system: Mus musculus; assay: Compound was tested for acute toxicity when administered perorally; assay type: functional; conditions: po
[22] = system: Rattus norvegicus; assay: Compound was tested for inhibition of contund edema when administered perorally; conditions: po
[23] = system: Rattus norvegicus; assay: Compound was tested for anti-pyrexia when administered perorally; assay type: functional; conditions: po

| Compound | inhibition in vivo at 100 mg/kg [1] | inhibition in vivo at 100 mg/kg [2] | further results |
| --- | --- | --- | --- |
| Cc1ccc(-c2nc3ccccc3n2CC(=O)N2CCN(CCO)CC2)nc1 | 14% | – | – |
| CCOC(=O)c1cccc(-c2nc3ccccc3[nH]2)n1 | – | 31% | – |
| CCc1cccc(-c2nc3cc(OC)ccc3[nH]2)n1 | 52% | – | inhibition in vivo at 200 mg/kg [3]: 87%; Activity [4]: 1; LD50 [5]: > 300 mg/kg |
| CCc1cccc(-c2nc3ccccc3[nH]2)n1 | – | 41% | inhibition in vivo at 200 mg/kg [3]: 85%; LD50 [5]: > 300 mg/kg |
| CCc1ccc(-c2nc3ccccc3[nH]2)nc1 | – | 44% | Activity [6]: 2; inhibition in vivo at 200 mg/kg [3]: 81%; ED60 [7]: 68 mg/kg; ED40 [8]: 142 mg/kg; UD50 [9]: 200 mg/kg; ED40 [10]: 70 mg/kg; LD50 [11]: 1230 mg/kg; ED40 [12]: 110 mg/kg; ED50 [13]: 140 mg/kg; IC50 [14]: 0.000076 M; LD50 [5]: 1230 mg/kg |
| Cc1cccc(-c2nc3cc(Cl)ccc3[nH]2)n1 | 39% | – | inhibition in vivo at 200 mg/kg [3]: 95%; Activity [4]: 1; LD50 [5]: 1230 mg/kg |
| Cc1cccc(-c2nc3cc(O)ccc3[nH]2)n1 | 6% | – | – |
| CCOC(=O)c1ccc(-c2nc3ccccc3[nH]2)nc1 | – | -16% | – |
| O=C(Cn1c(-c2ccccn2)nc2ccccc21)N1CCN(CCO)CC1 | -4% | – | – |
| CCc1ccc(-c2nc3cc(Cl)ccc3[nH]2)nc1 | -2% | – | – |
| COc1ccc2[nH]c(-c3ccccn3)nc2c1 | – | 34% | – |
| CCc1ccc(-c2nc3ccccc3n2Cc2ccccc2)nc1 | -18% | – | – |
| Clc1cccc(-c2nc3ccccc3[nH]2)n1 | – | 30% | – |
| Cc1cccnc1-c1nc2ccccc2[nH]1 | – | 17% | – |
| CCc1cccc(-c2nc3cc(C)ccc3[nH]2)n1 | 10% | – | – |
| COc1ccc2[nH]c(-c3cccc(C)n3)nc2c1 | 40% | – | inhibition in vivo at 200 mg/kg [3]: 39%; Activity [4]: 1; LD50 [5]: 3730 mg/kg |
| COc1cccc(-c2nc3ccccc3[nH]2)n1 | – | 47% | Activity [15]: >=2; LD50 [5]: > 300 mg/kg |
| Cc1ccc2[nH]c(-c3cccc(C)n3)nc2c1 | 42% | – | inhibition in vivo at 200 mg/kg [3]: 67%; Activity [4]: 1; LD50 [5]: 812 mg/kg |
| CCc1ccc(-c2nc3ccccc3n2CC(=O)OC)nc1 | 9% | – | – |
| Cc1cccc(-c2nc3ccccc3[nH]2)n1 | – | 44% | inhibition in vivo at 200 mg/kg [16]: 59%; Activity [17]: 1; LD50 [5]: 3250 mg/kg |
| Cc1ccc(-c2nc3cc(C)ccc3[nH]2)nc1 | – | 7% | – |
| OCc1ccc(-c2nc3ccccc3[nH]2)nc1 | – | -10% | – |
| Cc1ccc(-c2nc3ccccc3[nH]2)nc1 | – | 19% | – |
| CCc1ccc(-c2nc3cc(N)ccc3[nH]2)nc1 | 25% | – | – |
| Cc1ccc(-c2nc3ccccc3[nH]2)nc1C | 37% | – | – |
| CCc1ccc(-c2nc3ccccc3n2C)nc1 | 5% | – | – |
| CCc1ccc(-c2nc3cc(NC(C)=O)ccc3[nH]2)nc1 | 5% | – | – |
| NC(=O)c1cccc(-c2nc3ccccc3[nH]2)n1 | – | 13% | – |

| Compound | inhibition in vivo at 100 mg/kg [1] | inhibition in vivo at 100 mg/kg [2] | further results |
| --- | --- | --- | --- |
| Cc1ccc(-c2nc3ccccc3n2CC(=O)N2CCCC2)nc1 | 14% | – | – |
| CCc1ccc(-c2nc3ccccc3n2CC(=O)N2CCN(CCO)CC2)nc1 | 4% | – | – |
| Oc1cccc(-c2nc3ccccc3[nH]2)n1 | – | -7% | – |
| Cc1ccc2[nH]c(-c3ccc(C)c(C)n3)nc2c1 | -19% | – | – |
| CCc1ccc(-c2nc3cc(OC)ccc3[nH]2)nc1 | – | – | Activity [4]: 1; inhibition in vivo at 100 mg/kg [18]: 58%; LD50 [5]: > 300 mg/kg |
| Clc1ccc2nc(-c3ccccn3)[nH]c2c1 | – | 36% | – |
| CCCCc1ccc(-c2nc3ccccc3[nH]2)nc1 | – | -16% | – |
| OCc1cccc(-c2nc3ccccc3[nH]2)n1 | – | -13% | – |
| CCc1ccc(-c2nc3cc(C)ccc3[nH]2)nc1 | – | – | inhibition in vivo at 100 mg/kg [19]: 35% |
| CCc1ccc(-c2nc3cc([N+](=O)[O-])ccc3[nH]2)nc1 | -5% | – | – |
| Cc1ccc(-c2nc3ccccc3n2CC(=O)N2CCCCC2)nc1 | 2% | – | – |
| Cc1ccc(-c2nc3ccccc3n2CCN(C)C)nc1 | 12% | – | – |
| Cc1ccnc(-c2nc3ccccc3[nH]2)c1 | – | -4% | – |
| COC(=O)Cn1c(-c2ccccn2)nc2ccccc21 | -17% | – | – |
| Cc1ccc2[nH]c(-c3cccc(Cl)n3)nc2c1 | – | 36% | – |
| Cc1ccc2[nH]c(-c3cccc(O)n3)nc2c1 | -6% | – | – |
| CCc1ccc(-c2nc3ccccc3n2-c2ccccc2)nc1 | 12% | – | – |
| Cc1ccc(-c2nc3cc(Cl)ccc3[nH]2)nc1 | -5% | – | – |
| CCc1cccc(-c2nc3cc(Cl)ccc3[nH]2)n1 | 3% | – | – |
| Cc1ccc2nc(-c3ccccn3)[nH]c2c1 | – | 35% | – |
| Cc1ccc(-c2nc3ccccc3n2CC(=O)N2CCN(C)CC2)nc1 | 11% | – | – |
| CCc1ccc(-c2nc3cc(O)ccc3[nH]2)nc1 | 25% | – | – |
| CCc1ccc(-c2nc3ccccc3n2CC(=O)N2CCCC2)nc1 | -5% | – | – |
| COc1cccc(-c2nc3cc(C)ccc3[nH]2)n1 | 32% | – | – |
| c1ccc(-c2nc3ccccc3[nH]2)nc1 | – | 22% | – |
| CCCCC1C(=O)N(c2ccccc2)N(c2ccccc2)C1=O [PHENYLBUTAZONE] | 43% | – | ED50 [20]: 280 mg/kg; UD50 [9]: 142 mg/kg; ED40 [10]: 100 mg/kg; ED40 [12]: 180 mg/kg; IC50 [14]: 0.000015 M; LD50 [21]: 616 mg/kg; ED40 [22]: 200 mg/kg; ED60 [23]: 44 mg/kg |
| Cl.O=C(Cn1c(=O)sc2ccc(Cl)cc21)N1CCN(CCO)CC1 [TIARAMIDE HYDROCHLORIDE] | 31% | – | ED50 [20]: 76 mg/kg; UD50 [9]: 163 mg/kg; ED40 [10]: 160 mg/kg; ED40 [12]: 200 mg/kg; IC50 [14]: > 0.0001 M; LD50 [21]: 203 mg/kg; ED40 [22]: 200 mg/kg; ED60 [23]: 100 mg/kg |

— ChEMBL document CHEMBL1121470, “Synthesis and antiinflammatory activity of some 2-(substituted-pyridinyl)benzimidazoles” (J Med Chem, 1980)
